The subject of data set [1] is red blood cells (hemolysis). Briefly: Hemolytic activity. The class given is cell-based, human. As to conditions: human red blood cells (isolated from whole blood); human red blood cells, FIG. 5A. As for the experimental part: (§1) Methods: • Human whole blood was obtained from the Houston Gulf Coast Blood Center. • Red blood cells were isolated by the following method: Human blood (in EDTA) was diluted 1:1 with PBS, underlay with 4 mL of Histopaque-1077 (SIGMA) and was centrifuged at 400 g for 30 min. • Red blood cells (RBC) were collected and washed three times with PBS. • 10% suspensions of RBC were prepared with PBS before use. • 50 μL of RBC suspension was added to 2 mL of saponins with different concentration. • The suspension was mixed by vortexing then left to sit at room temperature for 60 minutes. • The suspension was centrifuged at 3000 rpm for 5 min. Absorbance of the supernatant was measured at 540 nm.

A further data set deals with 60 cancer cell lines. Briefly: Test with 60 cancer cell lines. The class given is cell-based. Particulars: most of 60 cancer cell lines tested. As for the experimental part:
To investigate the anti-tumor activity of Xanthoceras sorbifolia, we employed cancer cell lines derived from different human organs and tested the effect on growth activity. […] Intl App'l No. PCT/US04/33359 and U.S. Ser. No. 10/906,303. The active compound was then purified and named Xanifolia-Y. Its chemical structure was determined by 2D NMR and MS analysis. Xanifolia-Y is a novel triterpenoid saponin with a diangeloyl group attached at one end and carbohydrates or sugar moieties at another end of the triterpene structure. In an embodiment, the diangeloyl attached at C21, C22 positions and carbohydrates or sugar moieties at C3 position of a triterpene structure. The diangeloyl group is important for its activity. The purified compound has been tested with 60 cancer cell lines.

The test system of the next data set is OVCA 429. Briefly: MTT assay OVCA 429. It is filed as cell-based. As to conditions: Homo sapiens, OVCA429; OVCA 429, Serous. As for the experimental part: (§2) Majority of ovarian cancers arise from the surface epithelium of ovary, most of them belong to the histological subtypes of clear cell and serous carcinoma. We obtained 10 more human ovarian carcinoma cell-lines of these histological subtypes for these studies. The inhibition activity exerted by Xanifolia-Y was determined with MTT assay.
(In general: Formazan colour is commonly taken as a measure of viable cells.)

Data set [2] relates to (bladder)TB9 cells / HTB-9. The experiment in a line: MTT assay bladder cells. It is filed as cell-based, human. As for the experimental part:
(§3) Cells. Human cancer cell lines were obtained from American Type Culture Collection: HTB-9 (bladder), HeLa-S3 (cervix), DU145 (prostate), H460 (lung), MCF-7 (breast), K562 (leukocytes), HCT116 (colon), HepG2 (liver), U2OS (bone), T98G (brain), SK-MEL-5 (Skin) and OVCAR-3 (ovary). The cells were grown in following culture media: HeLa-53, DU145, MCF-7, Hep-G2 and T98G are in MEN (Earle's salts); HTB-9, H460, K562 and OVCAR-3 in RPMI-1640; HCT-116 and U2OS in McCoy-5A. They are supplemented with 10% fetal calf serum, glutamine and antibiotics, and incubated in an incubator with 5% CO2 humidified at 37° C.
MTT Assay. The procedure for MTT assay followed the method described by Carmichael et al. (1987) with modifications. The cells were seeded into a 96-well plate at concentration of 10,000/well for HTB-9, HeLa, H460, HCT116, T98G and OVCAR-3), 15,000/well for DU145, MCF-7, HepG2 and U2OS), and 40,000/well for K562 for 24 hours before drug-treatment. The cells were then exposed to the drugs for 48 hours (72 hours for HepG2 and U2OS, and 96 hours for MCF-7). After the drug-treatment, MTT (0.5 mg/mL) was added to cultures and incubated for an hour. The formazan (product of the reduction of tetrazolium by viable cells) formed and was dissolved with DMSO and the O.D. at 490 nm, and was measured by an ELISA reader. The MTT level of the cells before drug-treatment was also measured (T0). The % cell-growth (% G) is calculated as: % G=(TD−T0/TC−T0)×100(1), where TC or TD represents O.D. readings of control or drug-treated cells. When T0>TD, then the cytotoxicity (LC) expressed as % of the control is calculated as: % LC=(TD−T0/T0)×100(2).

Another data set concerns SKOV 3. Briefly: MTT assay SKOV 3. As to conditions: Homo sapiens, SK-OV-3; SKOV 3, Serous. The class given is cell-based. As for the experimental part:
as §2

For another data set, the system named is (lung)H460 cells. Briefly: MTT assay H460. It is filed as cell-based. As to conditions: Homo sapiens, NCI-H460. As for the experimental part:
as §3
MTT Assay. The procedure for MTT assay followed the method described by Carmichael et al. (1987) with modifications. […] The formazan (product of the reduction of tetrazolium by viable cells) formed and was dissolved with DMSO and the O.D. at 490 nm, and was measured by an ELISA reader. The MTT level of the cells before drug-treatment was also measured (T0). The % cell-growth (% G) is calculated as: % G=(TD−T0/TC−T0)×100(1), where TC or TD represents O.D. readings of control or drug-treated cells. When T0>TD, then the cytotoxicity (LC) expressed as % of the control is calculated as: % LC=(TD−T0/T0)×100(2).

Data set [3] deals with Angiopoietin 2 (Ang2) in ES2 cells. Briefly: Angiopoietin-2 cellular content (Western blot). The class given is cell-based, human. As to conditions: low concentration (5, 10 ug/ml), 24 hours. As for the experimental part: Methods: ES2 (human ovarian carcinoma cells) were grew in RPMI 1640 medium. 4.5 million cells were seeded in a T75 flask and grown for 24 hours before drug-treatment.
Drug-treatment: Cells cultures were treated with 5, 10 and 15 ug/ml (final concentration) of Xanifolia-Y3 [Y3-5, Y3-10, Y3-15]. or DMSO control [D-10]. After 24 hours, cells were suspended in 1 ml of SDS sample buffer (cell-extract). Samples (80 ul/lane) were applied to 10% SDS gel and electrophoresis was conducted with 100 volts for 2 hours. Protein was transferred to a nitrocellulose membrane electrophoretically. The nitrocellulose blot was blocked with 5% non-fat dry milk in PBS. The blot was then incubated with the first antibodies (goat anti-Ang2, SIGMA A0851) and second antibody (donkey anti-goat AP conjugated, Promega V115A). The immuno-bands were developed with BCIP/NBT color development system (Promega S3771).
Drug-treatment: Cells cultures were treated with 5, 10 and 15 ug/ml (final concentration) of Xanifolia-Y3 [Y3-5, Y3-10, Y3-15]. or DMSO control [D-10]. After 24 hours, cells were suspended in 1 ml of SDS sample buffer (cell-extract). Samples (80 ul/lane) were applied to a 10% SDS gel and electrophoresis was conducted with 100 volts for 2 hours. Protein was transferred to a nitrocellulose membrane electrophoretically. The nitrocellulose blot was blocked with 5% non-fat dry milk in PBS. […]
(In general: In western blotting, separated proteins are transferred to a membrane and probed.)

A further data set relates to human red blood cells. The experiment in a line: Hemolytic activity. The class given is cell-based. Particulars: FIG. 3D. As for the experimental part: as §1

We go through two compounds from patent publication US10213451B2, “Methods and compounds for modulating the secretion or expression of adhesion proteins or angiopoietins of cells” (PACIFIC ARROW LIMITED, priority 2004, dated 2019).

In brackets after ≈: the same amount, converted by molar mass.

As a reminder, the IC50 is the concentration that inhibits the measured activity by half. By GI50 is commonly meant the concentration giving 50% growth inhibition. Low readings indicate greater sensitivity of the cells, high ones lower sensitivity of the cells. Turning to `C/C=C(/C)C(=O)O[C@H]1[C@H](OC(=O)/C(C)=C\C)[C@@]2(CO)C(CC1(C)C)C1=CCC3[C@@]4(C)CC[C@H](O[C@@H]5OC(C(=O)O)[C@@H](O)C(O[C@@H]6O[C@@H](CO)C(O)C6O)C5O[C@@H]5OC(CO)[C@H](O)C(O)C5O)C(C)(C)C4CC[C@@]3(C)[C@]1(C)[C@@H](O)[C@H]2O` (stereo partly drawn) [Xanifolia-Y, 3-O-[β-D-galactopyranosyl (1→2)]-α-L-arabinofuranosy (1→3)-β-D-glucuronopyranosyl-21,22-O-diangeloyl-3β, 15α, 16α, 21β, 22α, 28-hexahydroxyolean-12-ene], in data set [1], the IC50 at 60 min was 1 µg/mL (≈ 0.876 µM). In the data set on 60 cancer cell lines, the GI50 was in the range of 0.1 to 1 µM. In addition, the IC50 with OVCA 429 was 7 µM; in data set [2] (Homo sapiens, (bladder)TB9 cells, read-out: IC50), 5 µg/mL (≈ 4.38 µM); in the data set with SKOV 3 it was 10.5 µM; with (lung)H460 cells, 7.5 µg/mL (≈ 6.57 µM). Also, the “growth of cells compared to the DMSO control (MTT)” value in data set [2] (HTB-9, 10 ug/ml) was 77%-91%. Further, the “Angiopoietin-2 immuno-band in cell extract” value in data set [3] is “No detectable or minimal immuno-band”.

On to `C/C=C(/C)C(=O)O[C@H]1[C@H](OC(=O)/C(C)=C\C)[C@@]2(CO)C(CC1(C)C)C1=CCC3[C@@]4(C)CC[C@H](O)C(C)(C)C4CC[C@@]3(C)[C@]1(C)[C@@H](O)[C@H]2O` (stereo partly drawn) [ACH-Y], for which, in the data set with human red blood cells, the “hemolytic activity of hydrolysed products of compound Y” value was “reduced hemolytic activity”.
